Source: patent publication US6737383B1, “Herbicidal oxadiazolidines” (priority 1999, dated 2004)

Columns and labels:
bedstraw = assay: Test B pre/postemergence bedstraw; format: in vivo, Galium aparine; conditions: Preemergence
Outline: (§1)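 Herbicidal effect was estimated by eye on a ten-point control scale after plants spent twelve to sixteen days in a greenhouse following soil or foliar treatment. Foliar sprays targeted plants at one to four leaves; all doses were formulated in a non-phytotoxic solvent with surfactant.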

blackgrass = assay: Test B pre/postemergence blackgrass; format: in vivo, Alopecurus myosuroides
Outline: as §1

surinam grass = assay: Test B pre/postemergence surinam grass; format: in vivo, Brachiaria decumbens
Outline: as §1

cocklebur = assay: Test B pre/postemergence cocklebur; format: in vivo, Xanthium strumarium
Outline: as §1

crabgrass = assay: Test B pre/postemergence crabgrass; format: in vivo, Digitaria sanguinalis
Outline: as §1

giant foxtail = assay: Test B pre/postemergence giant foxtail; format: in vivo, Setaria faberii
Outline: as §1

morningglory = assay: Test B pre/postemergence morningglory; format: in vivo, Ipomoea hederacea
Outline: as §1

pigweed = assay: Test B pre/postemergence pigweed; format: in vivo, Amaranthus retroflexus
Outline: as §1

soybean = assay: Test B pre/postemergence soybean; format: in vivo, Glycine max
Outline: as §1

velvetleaf = assay: Test B pre/postemergence velvetleaf; format: in vivo, Abutilon theophrasti
Outline: as §1

wheat = assay: Test B pre/postemergence wheat; format: in vivo, Triticum aestivum
Outline: as §1

wild oat = assay: Test B pre/postemergence wild oat; format: in vivo, Avena fatua
Outline: as §1

purple nutsedge = assay: Test B pre/postemergence purple nutsedge; format: in vivo, Cyperus rotundus
Outline: as §1

rice = assay: Test B flood test rice; format: in vivo, Oryza sativa
Outline: (§2)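 Flood test on plants grown to the 2-leaf stage; treated plants kept in greenhouse twelve to sixteen days, then visually rated against controls on a 0 (no effect) to 10 (complete control) scale.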

smallflower flatsedge = assay: Test B flood test smallflower flatsedge; format: in vivo, Cyperus difformis
Outline: as §2

bamyardgrass = assay: Test B flood test barnyardgrass; format: in vivo, Echinochloa crus-galli
Outline: as §2

[1] = Postemergence, Rate 125 g/ha, scale 0 to 10, 0 is no effect, 10 is complete control
[2] = Postemergence, Rate 250 g/ha, scale 0 to 10, 0 is no effect, 10 is complete control
[3] = Postemergence, Rate 500 g/ha, scale of 0 to 10 where 0 is no effect and 10 is complete control
[4] = Preemergence, Rate 62 g/ha, scale 0 to 10 (0 no effect, 10 complete control)
[5] = Preemergence, Rate 125 g/ha, scale of 0 to 10 where 0 is no effect and 10 is complete control
[6] = Preemergence, Rate 250 g/ha, scale of 0 to 10 where 0 is no effect and 10 is complete control
[7] = Preemergence, Rate 500 g/ha, scale 0 to 10, 0 is no effect, 10 is complete control
[8] = Rate 62 g/ha, Postemergence, scale of 0 to 10 where 0 is no effect and 10 is complete control
[9] = Preemergence, Rate 250 g/ha, scale 0 to 10, 0 is no effect, 10 is complete control
[10] = Rate 62 g/ha, flood test species, Pre-emergence, visual evaluation after twelve to sixteen days
[11] = Rate 125 g/ha, under heading Pre-emergence, flood test species, visual evaluation after twelve to sixteen days
[12] = Rate 250 g/ha, Pre-emergence, flood-test species, scale 0 to 10, 0 is no effect, 10 is complete control
[13] = Rate 500 g/ha, Pre-emergence, flood test species, scale 0 to 10 (0 no effect, 10 complete control)

Cc1nc(Cl)sc1C(C)n1c(=O)on(C(=O)N(c2ccc(F)cc2)C(C)C)c1=O (centres unmarked) [Compound 401]
1: Cocklebur plant response rating (cocklebur; [3]) | Plant response rating, Redroot pigweed (pigweed; [2]) | Plant response rating, Soybean (soybean; [2]) | Soybean plant response rating (soybean; [3])
2: Blackgrass plant response rating (blackgrass; [7]) | Plant response rating, Crabgrass (crabgrass; [2]) | Plant response rating, Crabgrass (crabgrass; [5]) | Plant response rating, Giant foxtail (giant foxtail; [2]) | Redroot pigweed plant response rating (pigweed; [3])
3: Crabgrass plant response rating (crabgrass; [3]) | Morningglory plant response rating (morningglory; [8]) | Soybean plant response rating (soybean; [7]) | Velvetleaf plant response rating (velvetleaf; [3])
6: Giant foxtail plant response rating (giant foxtail; [3]) | Plant response rating, Giant foxtail (giant foxtail; [5]) | Plant response rating, Morningglory (morningglory; [2])
0: Plant response rating, Bedstraw (bedstraw; Rate 62 g/ha, scale 0 to 10 (0 no effect, 10 complete control)) | Plant response rating, Bedstraw (bedstraw; Rate 125 g/ha, scale of 0 to 10 where 0 is no effect and 10 is complete control) | Plant response rating, Blackgrass (blackgrass; [1]) | Plant response rating, Blackgrass (blackgrass; [2]) | Blackgrass plant response rating (blackgrass; [3]) | Plant response rating, Blackgrass (blackgrass; [4]) | Plant response rating, Blackgrass (blackgrass; [5]) | Blackgrass plant response rating (blackgrass; [6]) | Blackgrass plant response rating (blackgrass; [8]) | Plant response rating, B. signalgrass (surinam grass; [1]) | Plant response rating, B. signalgrass (surinam grass; [2]) | B. signalgrass plant response rating (surinam grass; [3]) | Plant response rating, B. signalgrass (surinam grass; [4]) | Plant response rating, B. signalgrass (surinam grass; [5]) | B. signalgrass plant response rating (surinam grass; [6]) | B. signalgrass plant response rating (surinam grass; Preemergence, Rate 500 g/ha, scale of 0 to 10 where 0 is no effect and 10 is complete control) | B. signalgrass plant response rating (surinam grass; [8]) | Plant response rating, Cocklebur (cocklebur; [1]) | Plant response rating, Cocklebur (cocklebur; [2]) | Plant response rating, Cocklebur (cocklebur; [4]) | Plant response rating, Cocklebur (cocklebur; [5]) | Cocklebur plant response rating (cocklebur; [9]) | Cocklebur plant response rating (cocklebur; [7]) | Cocklebur plant response rating (cocklebur; [8]) | Plant response rating, Crabgrass (crabgrass; [1]) | Plant response rating, Crabgrass (crabgrass; [4]) | Crabgrass plant response rating (crabgrass; [8]) | Plant response rating, Giant foxtail (giant foxtail; [1]) | Plant response rating, Giant foxtail (giant foxtail; [4]) | Giant foxtail plant response rating (giant foxtail; [8]) | Plant response rating, Morningglory (morningglory; [4]) | Plant response rating, Morningglory (morningglory; [5]) | Morningglory plant response rating (morningglory; [9]) | Morningglory plant response rating (morningglory; [7]) | Plant response rating, Redroot pigweed (pigweed; [4]) | Plant response rating, Redroot pigweed (pigweed; [5]) | Redroot pigweed plant response rating (pigweed; [9]) | Redroot pigweed plant response rating (pigweed; [7]) | Redroot pigweed plant response rating (pigweed; [8]) | Plant response rating, Soybean (soybean; [4]) | Plant response rating, Soybean (soybean; [5]) | Soybean plant response rating (soybean; [9]) | Soybean plant response rating (soybean; [8]) | Plant response rating, Velvetleaf (velvetleaf; [2]) | Plant response rating, Velvetleaf (velvetleaf; [4]) | Plant response rating, Velvetleaf (velvetleaf; [5]) | Velvetleaf plant response rating (velvetleaf; [9]) | Velvetleaf plant response rating (velvetleaf; [7]) | Velvetleaf plant response rating (velvetleaf; [8]) | Wheat plant response rating (wheat; [3]) | Plant response rating, Wheat (wheat; [4]) | Plant response rating, Wheat (wheat; [5]) | Wheat plant response rating (wheat; [9]) | Wheat plant response rating (wheat; [7]) | Wheat plant response rating (wheat; [8]) | Wild oats plant response rating (wild oat; [3]) | Plant response rating, Wild oats (wild oat; [4]) | Plant response rating, Wild oats (wild oat; [5]) | Wild oats plant response rating (wild oat; [9]) | Wild oats plant response rating (wild oat; [7]) | Wild oats plant response rating (wild oat; [8]) | Plant response rating, Nutsedge (purple nutsedge; [2]) | Nutsedge plant response rating (purple nutsedge; [3]) | Plant response rating, Nutsedge (purple nutsedge; [4]) | Plant response rating, Nutsedge (purple nutsedge; [5]) | Nutsedge plant response rating (purple nutsedge; [9]) | Nutsedge plant response rating (purple nutsedge; [7]) | Nutsedge plant response rating (purple nutsedge; [8]) | Plant response rating, Rice (0 to 10 scale, 0 is no effect, 10 is complete control) (rice; [10]) | Rice plant response rating (0 to 10 scale, 0 is no effect, 10 is complete control) (rice; [11]) | Rice plant response rating (rice; [12]) | Rice plant response rating (rice; [13]) | Plant response rating, S. Flatsedge (0 to 10 scale, 0 is no effect, 10 is complete control) (smallflower flatsedge; [10]) | S. Flatsedge plant response rating (0 to 10 scale, 0 is no effect, 10 is complete control) (smallflower flatsedge; [11]) | S. Flatsedge plant response rating (smallflower flatsedge; [12]) | S. Flatsedge plant response rating (smallflower flatsedge; [13]) | Plant response rating, Barnyardgrass (0 to 10 scale, 0 is no effect, 10 is complete control) (bamyardgrass; [10]) | Barnyardgrass plant response rating (0 to 10 scale, 0 is no effect, 10 is complete control) (bamyardgrass; [11]) | Barnyardgrass plant response rating (bamyardgrass; [12]) | Barnyardgrass plant response rating (bamyardgrass; [13])
10: Crabgrass plant response rating (crabgrass; [7])
8: Crabgrass plant response rating (crabgrass; [9]) | Giant foxtail plant response rating (giant foxtail; [7])
7: Giant foxtail plant response rating (giant foxtail; [9]) | Morningglory plant response rating (morningglory; [3])
